Source: PubChem BioAssay (NCI)
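Each compound was tested at five concentrations against cells in 96-well plates for 48 hours. At the TGI there is no net growth.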

Key:
Assay in all cases: NCI anticancer screen, dose series, 48 h
786-0 renal = test system: 786-0 renal
A498 renal = test system: A498 renal
A549 NSCLC = test system: A549 NSCLC
ACHN renal = test system: ACHN renal
BT-549 breast = test system: BT-549 breast
CAKI-1 renal = test system: CAKI-1 renal
CCRF-CEM leukemia = test system: CCRF-CEM leukemia
COLO 205 colon = test system: COLO 205 colon
DU-145 prostate = test system: DU-145 prostate
EKVX NSCLC = test system: EKVX NSCLC
HCC-2998 colon = test system: HCC-2998 colon
HCT-116 colon = test system: HCT-116 colon
HCT-15 colon = test system: HCT-15 colon
HL-60(TB) leukemia = test system: HL-60(TB) leukemia
HOP-62 NSCLC = test system: HOP-62 NSCLC
HOP-92 NSCLC = test system: HOP-92 NSCLC
HS 578T breast = test system: HS 578T breast
HT29 colon = test system: HT29 colon
IGROV1 ovarian = test system: IGROV1 ovarian
K-562 leukemia = test system: K-562 leukemia
KM12 colon = test system: KM12 colon
LOX IMVI melanoma = test system: LOX IMVI melanoma
M14 melanoma = test system: M14 melanoma
MALME-3M melanoma = test system: MALME-3M melanoma
MCF7 breast = test system: MCF7 breast
MDA-MB-231 breast = test system: MDA-MB-231 breast
MDA-MB-435 = test system: MDA-MB-435
MDA-N = test system: MDA-N
MOLT-4 leukemia = test system: MOLT-4 leukemia
NCI-H226 lung = test system: NCI-H226 lung
NCI-H23 lung = test system: NCI-H23 lung
NCI-H460 lung = test system: NCI-H460 lung
NCI-H522 lung = test system: NCI-H522 lung
NCI/ADR-RES ovarian = test system: NCI/ADR-RES ovarian
OVCAR-3 ovarian = test system: OVCAR-3 ovarian
OVCAR-5 ovarian = test system: OVCAR-5 ovarian
OVCAR-8 ovarian = test system: OVCAR-8 ovarian
PC-3 prostate = test system: PC-3 prostate
RXF 393 renal = test system: RXF 393 renal
SF-268 CNS = test system: SF-268 CNS
SF-295 CNS = test system: SF-295 CNS
SF-539 CNS = test system: SF-539 CNS
SK-MEL-28 melanoma = test system: SK-MEL-28 melanoma
SK-MEL-5 melanoma = test system: SK-MEL-5 melanoma
SK-OV-3 ovarian = test system: SK-OV-3 ovarian
SN12C renal = test system: SN12C renal
SNB-19 CNS = test system: SNB-19 CNS
SR leukemia = test system: SR leukemia
SW-620 colon = test system: SW-620 colon
T-47D breast = test system: T-47D breast
TK-10 renal = test system: TK-10 renal
U251 CNS = test system: U251 CNS
UACC-257 melanoma = test system: UACC-257 melanoma
UACC-62 melanoma = test system: UACC-62 melanoma
UO-31 renal = test system: UO-31 renal
OVCAR-4 ovarian = test system: OVCAR-4 ovarian
RPMI-8226 leukemia = test system: RPMI-8226 leukemia
SK-MEL-2 melanoma = test system: SK-MEL-2 melanoma

Measured: TGI

O=C1CC2[C@@H](N3CCCC3)CCC(N1Cc1ccccc1)C2(O)O (stereo partly specified)
not listed: OVCAR-4 ovarian | RPMI-8226 leukemia | SK-MEL-2 melanoma
> 100 µM: all other assays above

O=C(OCc1ccccc1)N1CCNCCNCC1
not listed: MALME-3M melanoma | SK-OV-3 ovarian
> 100 µM: all other assays above
